Measurements as given in patent US12667686B2, “Nitric oxide generating systems” (NOTA Laboratories, LLC, priority 2019, dated 2026).

Assay: GSNO stability as a function of pH
Assay type: physicochemical
Settings: alkaline conditions
Protocol: The stability of the formulations was tested via UV/Vis analysis and/or via the electrochemical NOA.

pH above which GSNO instability and hence NO generation begins to increase: above 8.5
SMILES: N[C@@H](CCC(=O)N[C@@H](CSN=O)C(=O)NCC(=O)O)C(=O)O [GSNO, S-nitrosoglutathione]
